Measured values as given in PubChem BioAssay AID1259407 (Chemical Carcinogenesis Research Information System (CCRIS), 2018).
Active and inactive are the calls of the source. No rule for the calls is given here.

Test system: CCRIS mutagenicity, Ames/micronucleus/aberration tests
Experiment: CCRIS mutagenicity studies
[1] = Test System: AMES SALMONELLA TYPHIMURIUM, Strain/Indicator: TA98, Metabolic Activation: RAT, LIVER, S-9, AROCLOR 1254, Method: PREINCUBATION
[2] = Test System: AMES SALMONELLA TYPHIMURIUM, Strain/Indicator: TA100, Metabolic Activation: NONE, Method: PREINCUBATION
[3] = Test System: AMES SALMONELLA TYPHIMURIUM, Strain/Indicator: TA100, Metabolic Activation: RAT, LIVER, S-9, AROCLOR 1254, Method: PREINCUBATION
[4] = Test System: AMES SALMONELLA TYPHIMURIUM, Strain/Indicator: TA98, Metabolic Activation: NONE, Method: STANDARD PLATE
[5] = Test System: AMES SALMONELLA TYPHIMURIUM, Strain/Indicator: TA100, Metabolic Activation: NONE, Method: STANDARD PLATE
[6] = Test System: AMES SALMONELLA TYPHIMURIUM, Strain/Indicator: TA1538, Metabolic Activation: NONE, Method: STANDARD PLATE

NS(=O)(=O)c1cc2c(cc1Cl)NCNS2(=O)=O
mutagenic call (End Point: IN VITRO CHROMOSOMAL ABERRATIONS, Test System: CHINESE HAMSTER OVARY CELLS, Metabolic Activation: NONE): inactive; negative
mutagenic call (End Point: IN VITRO CHROMOSOMAL ABERRATIONS, Test System: CHINESE HAMSTER OVARY CELLS, Metabolic Activation: RAT, LIVER, S-9, AROCLOR 1254): inactive; negative
mutagenic call (End Point: IN VITRO CHROMOSOMAL ABERRATIONS, Test System: CHO CELLS, Metabolic Activation: NONE): inactive; negative
mutagenic call (End Point: IN VITRO CHROMOSOMAL ABERRATIONS, Test System: CHO CELLS, Metabolic Activation: RAT, LIVER, S-9, AROCLOR 1254): inactive; negative
mutagenic call (Test System: AMES SALMONELLA TYPHIMURIUM, Strain/Indicator: TA98, Metabolic Activation: HAMSTER, LIVER, S-9, AROCLOR 1254, Method: PREINCUBATION): inactive; negative
mutagenic call [1]: inactive; negative
mutagenic call (Test System: AMES SALMONELLA TYPHIMURIUM, Strain/Indicator: TA100, Metabolic Activation: HAMSTER, LIVER, S-9, AROCLOR 1254, Method: PREINCUBATION): inactive; negative
mutagenic call [2]: inactive; negative
mutagenic call [3]: inactive; negative
mutagenic call (Test System: AMES SALMONELLA TYPHIMURIUM, Strain/Indicator: TA1535, Metabolic Activation: HAMSTER, LIVER, S-9, AROCLOR 1254, Method: PREINCUBATION): inactive; negative
mutagenic call (Test System: AMES SALMONELLA TYPHIMURIUM, Strain/Indicator: TA1535, Metabolic Activation: NONE, Method: PREINCUBATION): inactive; negative
mutagenic call (Test System: AMES SALMONELLA TYPHIMURIUM, Strain/Indicator: TA1535, Metabolic Activation: RAT, LIVER, S-9, AROCLOR 1254, Method: PREINCUBATION): inactive; negative
mutagenic call (Test System: AMES SALMONELLA TYPHIMURIUM, Strain/Indicator: TA1537, Metabolic Activation: HAMSTER, LIVER, S-9, AROCLOR 1254, Method: PREINCUBATION): inactive; negative
mutagenic call (Test System: AMES SALMONELLA TYPHIMURIUM, Strain/Indicator: TA1537, Metabolic Activation: RAT, LIVER, S-9, AROCLOR 1254, Method: PREINCUBATION): inactive; negative
mutagenic call (Test System: MOUSE LYMPHOMA, Strain/Indicator: L5178Y (TK+/TK-), Metabolic Activation: NONE, Method: SUSPENSION/PLATE): active; positive

CS(C)(=O)=O
mutagenic call (Test System: AMES SALMONELLA TYPHIMURIUM, Strain/Indicator: TA98, Metabolic Activation: NONE, Method: PREINCUBATION): inactive; negative
mutagenic call [1]: inactive; negative
mutagenic call [2]: inactive; negative
mutagenic call [3]: inactive; negative
mutagenic call (Test System: AMES SALMONELLA TYPHIMURIUM, Strain/Indicator: TA102, Metabolic Activation: NONE, Method: PREINCUBATION): inactive; negative
mutagenic call (Test System: AMES SALMONELLA TYPHIMURIUM, Strain/Indicator: TA102, Metabolic Activation: RAT, LIVER, S-9, AROCLOR 1254, Method: PREINCUBATION): inactive; negative

CCCCOc1cc(N=Nc2ccccc2)ccc1N=Nc1c(S(=O)(=O)O)cc2ccc(N)cc2c1O
mutagenic call [4]: inactive; negative
mutagenic call (Test System: AMES SALMONELLA TYPHIMURIUM, Strain/Indicator: TA98, Metabolic Activation: RAT, LIVER, S-9, AROCLOR 1254, Method: STANDARD PLATE): active; positive
mutagenic call [5]: inactive; negative
mutagenic call (Test System: AMES SALMONELLA TYPHIMURIUM, Strain/Indicator: TA100, Metabolic Activation: RAT, LIVER, S-9, AROCLOR 1254, Method: STANDARD PLATE): inactive; negative
mutagenic call [6]: inactive; negative
mutagenic call (Test System: AMES SALMONELLA TYPHIMURIUM, Strain/Indicator: TA1538, Metabolic Activation: RAT, LIVER, S-9, AROCLOR 1254, Method: STANDARD PLATE): active; positive

O=NN(CC(=O)O)CC(=O)O
mutagenic call [4]: inactive; negative
mutagenic call (Test System: AMES SALMONELLA TYPHIMURIUM, Strain/Indicator: TA98, Metabolic Activation: RAT, LIVER, S-9, Method: STANDARD PLATE): inactive; negative
mutagenic call [2]: active; positive
mutagenic call [5]: inactive; negative
mutagenic call (Test System: AMES SALMONELLA TYPHIMURIUM, Strain/Indicator: TA100, Metabolic Activation: RAT, LIVER, S-9, Method: STANDARD PLATE): inactive; negative
mutagenic call (Test System: AMES SALMONELLA TYPHIMURIUM, Strain/Indicator: TA1535, Metabolic Activation: NONE, Method: STANDARD PLATE): inactive; negative
mutagenic call (Test System: AMES SALMONELLA TYPHIMURIUM, Strain/Indicator: TA1535, Metabolic Activation: RAT, LIVER, S-9, Method: STANDARD PLATE): inactive; negative
mutagenic call (Test System: AMES SALMONELLA TYPHIMURIUM, Strain/Indicator: TA1537, Metabolic Activation: NONE, Method: STANDARD PLATE): inactive; negative
mutagenic call (Test System: AMES SALMONELLA TYPHIMURIUM, Strain/Indicator: TA1537, Metabolic Activation: RAT, LIVER, S-9, Method: STANDARD PLATE): inactive; negative
mutagenic call [6]: inactive; negative
mutagenic call (Test System: AMES SALMONELLA TYPHIMURIUM, Strain/Indicator: TA1538, Metabolic Activation: RAT, LIVER, S-9, Method: STANDARD PLATE): inactive; negative
